For the test, the system named is HCV replicon. As to the kind of experiment: microbe, parasite or virus in culture. Format: cell-based. The conditions noted are these: read-out: Replicon IC5Os. On the technique in general: Replicon systems follow genome replication, usually without infectious particles.
Setting [1] is: Replicon IC50 values are determined by firefly luciferase signal, bicistronic replicon, 2 days.

Molecules are shown by their SMILES. Where two headings read alike, the source gives them in different places.

In the case of `CCOc1ccc2cc(-c3ccc(NS(=O)(=O)CC)cc3)n(CC(C)C)c2c1` [Compound 465], under setting [1], the IC50 is > 2000 nM. Same read-out and setting: the figure for `CCOc1ccc2cc(-c3ccc(NS(C)(=O)=O)cc3)n(C3CCC3)c2c1` [Compound 466] is 500 to 2000 nM. In the case of `CCOc1ccc2cc(-c3ccc(NS(=O)(=O)CC)cc3)n(C3CCC3)c2c1` [Compound 467], the IC50 under setting [1] is 500 to 2000 nM. Turning to `CCS(=O)(=O)Nc1ccc(-c2c(C#N)c3ccc(OC)cc3n2C(C)C)cc1` [Compound 468], the IC50 under setting [1] was < 500 nM. As for `CCn1c(-c2ccc(N)cc2)c(C#N)c2ccc(OCCCl)cc21` [Compound 476], the IC50 under setting [1] was 500 to 2000 nM. As to `CCn1c(-c2ccc(NS(C)(=O)=O)cc2)c(C#N)c2ccc(OCCN3CCCCC3)cc21` [Compound 479], the IC50 under setting [1] is > 2000 nM.

Take `CCn1c(-c2ccc(NS(C)(=O)=O)cc2)c(C#N)c2ccc(OCCN3CCN(C)CC3)cc21` [Compound 481]: under setting [1], the IC50 is > 2000 nM.

With `CCn1c(-c2ccc(NS(C)(=O)=O)cc2)c(C#N)c2ccc(OCCN(C)CCOC)cc21` [Compound 482], the IC50 under setting [1] was in the range of 500 to 2000 nM. In the case of `CCn1c(-c2cccc(N)c2)c(C#N)c2cc(OC)ccc21` [Compound 483], under setting [1], the IC50 was > 2000 nM.

For `CCn1c(-c2nc3ccccc3s2)c(C#N)c2ccc(OC)cc21` [Compound 484], under setting [1], the IC50 was > 2000 nM. On the same count and under the same terms, as for `CCOC(=O)Nc1cccc(-c2c(C#N)c3cc(-c4cccc(OC)c4)ccc3n2CC)c1` [Compound 485], the figure is > 2000 nM; as for `CCCOC(=O)Nc1cccc(-c2c(C#N)c3cc(-c4cccc(OC)c4)ccc3n2CC)c1` [Compound 486], 500 to 2000 nM; as for `CCn1c(-c2ccc(NS(C)(=O)=O)cc2)c(C#N)c2cc(-c3cccc(OC)c3)ccc21` [Compound 487], 500 to 2000 nM.

In the case of `CCn1c(-c2ccc(NS(=O)(=O)CC)cc2)c(C#N)c2cc(-c3cccc(OC)c3)ccc21` [Compound 488], the IC50 under setting [1] is < 500 nM.

With `CCn1c(-c2cccc(NC(=O)OCC3CCCC3)c2)c(C#N)c2ccc(OC)cc21` [Compound 489], the IC50 under setting [1] lay within 500 to 2000 nM. As to `CCn1c(-c2cccc(NC(=O)OC3CCCC3)c2)c(C#N)c2ccc(OC)cc21` [Compound 490], under setting [1], the IC50 fell in the range of 500 to 2000 nM. `CCOC(=O)Nc1cccc(-c2c(C#N)c3ccc(OCCn4cncn4)cc3n2CC)c1` [Compound 491]: the IC50 under setting [1] is > 2000 nM. `CCOC(=O)Nc1cccc(-c2c(C#N)c3ccc(OCCN4CCOCC4)cc3n2CC)c1` [Compound 492]: the IC50 (Hepatitis C virus, 48 h) lay in the range of 500 to 2000 nM. `CCOC(=O)Nc1cccc(-c2c(C#N)c3ccc(OCCCN4CCOCC4)cc3n2CC)c1` [Compound 493]: the IC50 (Hepatitis C virus, 48 h) is < 500 nM.

`CCOC(=O)Nc1cccc(-c2[nH]c3cc(OC)ccc3c2C#N)c1` [Compound 494]: the IC50 under setting [1] is > 2000 nM. For the compound `CCn1c(-c2ccc(NS(C)(=O)=O)cc2)c(C#N)c2ccc(OCCn3ccnc3)cc21` [Compound 496], under setting [1], the IC50 was 500 to 2000 nM. On to `CCn1c(-c2ccc(NS(C)(=O)=O)cc2)c(C#N)c2ccc(OCCn3cncn3)cc21` [Compound 497], for which the IC50 under setting [1] is > 2000 nM. Turning to `CCn1c(-c2cccc(NC(=O)OCc3ccc(C(C)C)cc3)c2)c(C#N)c2ccc(OC)cc21` [Compound 500], under setting [1], the IC50 is > 2000 nM. Consider `CCn1c(-c2cccc(NC(=O)OC3CCOC3)c2)c(C#N)c2ccc(OC)cc21` (stereo not drawn) [Compound 502], for which the IC50 under setting [1] is > 2000 nM. Same read-out and setting: as for `CCn1c(-c2cccc(NC(=O)O[C@@H]3CCOC3)c2)c(C#N)c2ccc(OC)cc21` [Compound 503], the figure is > 2000 nM; as for `CCOC(=O)Nc1cccc(-c2c(C#N)c3ccc(OCCCl)cc3n2CC)c1` [Compound 504], > 2000 nM; as for `CCn1c(-c2cccc(NS(=O)(=O)CC)c2)c(C#N)c2cc(OC)ccc21` [Compound 505], > 2000 nM. In the case of `CCOC(=O)Nc1cccc(-c2c(C#N)c3cc(OC)ccc3n2CC)c1` [Compound 506], the IC50 under setting [1] was > 2000 nM. As for `CCn1c(-c2cccc(NC(=O)OC(C)C)c2)c(C#N)c2cc(OC)ccc21` [Compound 507], the IC50 under setting [1] was > 2000 nM. Same read-out and setting: the figure for `CCCOC(=O)Nc1cccc(-c2c(C#N)c3cc(OC)ccc3n2CC)c1` [Compound 508] is > 2000 nM.
